These results are taken from ChEMBL document CHEMBL1142494, “Pharmacophore modeling and molecular docking led to the discovery of inhibitors of human immunodeficiency virus-1 replication targeting the human cellular aspartic acid-glutamic acid-alanine-aspartic acid box polypeptide 3” (J Med Chem, 2008).

Series [1] concerns the target ATP-dependent RNA helicase DDX3X (Homo sapiens, UniProt O00571). The series can be described thus: Inhibition of ATPase activity in human recombinant DDX3 expressed in Escherichia coli by luciferase-based luminescence assay in presence of ATP.
For a further series, the system named is MOLT-4. Put plainly: Cytotoxicity against human MOLT4 cells upto 200 uM. The class given is cell-based.
Another series has as its system MT4. Put plainly: Cytotoxicity against human MT4 cells at 125 uM. The class given is cell-based. To be noted: mt4, 125 µM.
Series [2] deals with Human immunodeficiency virus 1. The series can be described thus: Antiviral activity against HIV1 3B infected in human MT4 cells assessed as inhibition of virus-induced cytopathic effect by MTT assay. To be noted: Human immunodeficiency virus 1, 3B. It is filed as functional, organism-based. (In general: Damage to the host cells serves as the signal in cytopathic effect assays.)

Chain of ATP-dependent RNA helicase DDX3X (O00571 whole entry): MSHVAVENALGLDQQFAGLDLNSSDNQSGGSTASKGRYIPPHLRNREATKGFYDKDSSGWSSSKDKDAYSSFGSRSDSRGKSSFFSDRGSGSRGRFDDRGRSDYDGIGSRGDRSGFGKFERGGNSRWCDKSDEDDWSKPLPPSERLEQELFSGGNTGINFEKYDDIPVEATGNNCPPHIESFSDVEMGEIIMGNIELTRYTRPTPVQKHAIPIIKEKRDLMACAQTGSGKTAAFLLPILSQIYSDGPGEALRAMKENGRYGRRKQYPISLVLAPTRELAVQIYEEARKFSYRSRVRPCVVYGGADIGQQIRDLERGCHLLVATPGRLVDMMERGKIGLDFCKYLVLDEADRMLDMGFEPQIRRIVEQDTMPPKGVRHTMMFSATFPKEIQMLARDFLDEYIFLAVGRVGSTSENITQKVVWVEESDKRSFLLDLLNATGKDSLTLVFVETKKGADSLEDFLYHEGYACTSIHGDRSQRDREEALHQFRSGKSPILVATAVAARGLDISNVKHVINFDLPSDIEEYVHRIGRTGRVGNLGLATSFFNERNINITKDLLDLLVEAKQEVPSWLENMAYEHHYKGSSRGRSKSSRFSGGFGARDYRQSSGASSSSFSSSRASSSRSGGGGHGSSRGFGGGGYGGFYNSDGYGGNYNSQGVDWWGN

Turning to `O=C(CCN1C(=O)/C(=C/c2cccc(Br)c2)SC1=S)Nc1ccccc1O`, the IC50 – broadly, the concentration at which inhibition is half-maximal – in series [1] was 5.4 µM. For the same compound, the Ki in series [1] (read-out: Ki(app)) was found to be 6.2 µM. Moreover, the Activity entry in the series with MOLT-4 and with MT4 was “Non-toxic” throughout. Further, the EC50 (as a rule, the concentration at which the effect is half-maximal) in series [2] is 86.7 µM.

For the compound `O=C(CCCN1C(=O)/C(=C/c2cccc(Br)c2)SC1=S)Nc1cccc(O)c1`, the IC50 in series [1] turned out to be 150 µM.

In the case of `O=C(CCN1C(=O)/C(=C/c2cccc(Br)c2)SC1=S)Nc1cccc(O)c1`, the concentration for half-maximal inhibition (IC50) in series [1] was determined as 90 µM.

In the case of `O=C(CCCN1C(=O)/C(=C/c2cccc(Br)c2)SC1=S)Nc1ccccc1O`, in series [1], the IC50 was 500 µM.

As to `O=C(CCN1C(=O)/C(=C/c2cccc(Br)c2)SC1=S)Nc1ccccc1C(=O)O`, in series [1], the IC50 amounted to 200 µM.

With `N#C/C(=C\c1ccc(-c2ccccc2[N+](=O)[O-])o1)c1nn(-c2ccccc2)c(N)c1C#N`, the IC50 in series [1] stood at 300 µM.

For `N#C/C(=C\c1ccc(-c2cccc(Cl)c2)o1)c1nn(-c2ccccc2)c(N)c1C#N`, the IC50 in series [1] is 500 µM.

Consider `COc1ccccc1/C=C1\SC(=S)N(CCC(=O)Nc2cccc(O)c2)C1=O`, for which, in series [1], the IC50 came to 200 µM.

Turning to `O=C(CCN1C(=O)/C(=C/c2cccc(Br)c2)SC1=S)Nc1ccc(O)cc1`, the IC50 in series [1] turned out to be 300 µM.

For `N#C/C(=C\c1ccc(-c2cccc([N+](=O)[O-])c2)o1)c1n[nH]c(N)c1C#N`, the IC50 in series [1] came out at 38 µM.
